This note sets out measurements from patent publication US12134784B2, “Method for preparing intestinal tract cell layer derived from pluripotent stem cell” (PUBLIC UNIVERSITY CORPORATION NAGOYA CITY UNIVERSITY, priority 2018, dated 2024).

Data set [1] deals with human iPS cell-derived intestinal organoid. Nature of the data set: Inflammatory bowel disease model using intestinal organoid (TNF-α addition). In kind it is cell-based. On the procedure: (A) Protocol for preparation of an inflammatory bowel disease model. (B) The mRNA expression analysis of an intestinal organoid in the cases of TNF-α and infliximab addition. Average±S.D. (n=3). The mRNA expression level of the control was regarded as 1. (C) Immunofluorescent staining of an intestinal organoid in the cases of TNF-α and infliximab addition. DAPI: Nuclear staining. Scale bar: 50 μm.
(§1) To prepare an inflammatory bowel disease model and a fibrosis model, 30 ng/mL TNF-α and 30 ng/mL TNF-α+2 ng/mL TGF-β were added for 96 hours and 48 hours from Day 34 after completion of differentiation induction, respectively. To suppress these reactions, 100 ng/mL infliximab (anti-TNF-α antibody) for the inflammatory bowel disease model and 20 μM SB431542 or 20 μM Repsox serving as a TGF-β inhibitor, for fibrosis model were added, respectively, for the same length of time as above. Note that, to enhance the function of an intestinal organoid, PD98059, 5-aza-2′-deoxycytidine, A-83-01 and N-[(3,5-difluorophenyl) acetyl]-L-alanyl-2-phenyl-1,l-dimethylethylester-glycine (DAPT) were added from Day 19 after initiation of differentiation induction to the completion of differentiation. The addition effects in these cases were checked.
Whether an inflammatory bowel disease model can be prepared by using an intestinal organoid prepared by a new differentiation induction method was investigated by adding a main cause, i.e., an inflammatory cytokine, TNF-α, from Day 34 after completion of differentiation induction up to 96 hours (FIG. 7A). The expressions of villin and MUC2 gene decreased by addition of TNF-α; however, the expression of TNF-α increased. The decrease/increase in expression was suppressed by addition of an anti-TNF-α antibody, infliximab (FIG. 7B). Subsequently, expressions of a tight junction protein and an apoptosis marker were confirmed by immunofluorescent staining. It was observed that a tight junction structure is destroyed by addition of TNF-α. The number of cells positive to Caspase-3 increased. These changes were not found in an infliximab addition group (FIG. 7C). In inflammatory bowel disease, it is reported that an inflammatory cytokine affects in-vivo intestinal epithelial cells to destroy tight junction, with the result that the number of mucus secretory cells, i.e., goblet cells, decreases.

Data set [2] has as its system CYP3A4.
The subject of data set [3] is CYP3A4. Nature of the data set: Inducibility of CYP3A4 in human intestinal organoid differentiated by using a polysaccharide polymer. As to conditions: VD3 1 μmol/L, 72 hours.
For data set [4], the system named is human iPS cell-derived intestinal organoid. Nature of the data set: Fibrosis model using intestinal organoid (TNF-α and TGF-β addition). The following applies: 20 μM inhibitor with 30 ng/mL TNF-α+2 ng/mL TGF-β, 48 hours. In kind it is cell-based. As for the experimental part:
(A) A protocol for preparation of a fibrosis model. (B) The mRNA expression analysis of an intestinal organoid in the cases of addition of TNF-α+TGF-β and TGF-β inhibitor (SB431542, Repsox). Average±S.D. (n=3). The mRNA expression level of the control was regarded as 1.
as §1
In order to reproduce fibrosis of a tissue in-vitro, which is developed by chronic inflammation in inflammatory bowel disease, TNF-α and TGF-β, each are reported as a main cause, were added for 48 hours from Day 34 after completion of differentiation induction (FIG. 8A). […]

Data set [5] has as its system CYP3A4. Nature of the data set: CYP3A4 metabolic activity of human intestinal organoid (midazolam, LC-MS/MS). The following applies: 5 μmol/L midazolam, 24 hours; addition of ketoconazole.
Setting [6] is: 30 ng/mL TNF-α, 96 hours from Day 34.

Regarding TNF-α, in data set [1] (30 ng/mL TNF-α, 96 hours), the “number of cells positive to Caspase-3” value is recorded as “increased” and the “tight junction structure (immunofluorescent staining)” value is on record as “destroyed”. Moreover, in data set [1] (setting [6]), the “expression of TNF-α” value is given as “increased”; the “expressions of villin and MUC2 gene” value is “decreased”.

For the molecule `C=C1/C(=C\C=C2/CCC[C@]3(C)[C@@H]([C@H](C)CCCC(C)(C)O)CC[C@@H]23)C[C@@H](O)C[C@@H]1O` [activated vitamin D3, 1α, 25-dihydroxy vitamin D3], the “mRNA expression level of CYP3A4 increased” value in the data set with CYP3A4 [2] is “about 1700 fold”. Also, the “metabolic activity of midazolam” value with CYP3A4 [3] (5 μmol/L midazolam, 24 hours) is “significantly increased”. Besides, the “mRNA expression of CYP3A4” value in the data set on CYP3A4 [3] (compared to control group) is “significantly induced”.

On to infliximab: anti-TNF-α antibody, for which, in data set [1] (100 ng/mL infliximab with 30 ng/mL TNF-α, 96 hours), the “destruction of tight junction structure and increase of Caspase-3 positive cells (immunofluorescent staining)” value is listed as “not found”. In addition, the “decrease/increase in expression (villin, MUC2, TNF-α) caused by TNF-α” value in data set [1] (100 ng/mL infliximab with 30 ng/mL TNF-α, 96 hours from Day 34) is given as “suppressed”.

With `NC(=O)c1ccc(-c2nc(-c3ccc4c(c3)OCO4)c(-c3ccccn3)[nH]2)cc1` [SB431542], in data set [4], the “decrease/increase in expression of fibrosis markers caused by TNF-α and TGF-β” value was “suppressed”.

As for `Cc1cccc(-c2[nH]ncc2-c2ccc3ncccc3n2)n1` [Repsox], the “decrease/increase in expression of fibrosis markers caused by TNF-α and TGF-β” value in data set [4] is recorded as “suppressed”.

Take `CC(=O)N1CCN(c2ccc(OCC3COC(Cn4ccnc4)(c4ccc(Cl)cc4Cl)O3)cc2)CC1` (stereo not drawn) [ketoconazole]: in the data set with CYP3A4 [5], the “midazolam's metabolic activity (CYP3A4)” value is recorded as “significantly inhibited”.
